Consider 11 compounds from patent US9187464B2, “TRPV4 antagonists” (GlaxoSmithKline Intellectual Property (No. 2) Limited, priority 2011, dated 2015).

This experiment has as its target T1, human TRPV4 (Homo sapiens, UniProt Q9HBA0).
T1 construct: expressed in transfected cells; host or cells: HEK-293-MSR-II cells transduced with 1% BacMam virus
Description: Ligand-gated assay (Fluo4 calcium, FLIPR; inhibition of agonist-induced activation). Type of experiment: cell-based. As to conditions: HEK-293-MSR-II cells transduced with BacMam human TRPV4; agonist at EC80. The protocol:
TRP channel activation/opening results in an influx of divalent and monovalent cations including calcium. The resulting changes in intracellular calcium were monitored using a calcium selective fluorescent dye Fluo4 (MDS Analytical Technologies). Dye loaded cells were initially exposed to test compound to verify a lack of agonist activity. Cells were subsequently activated by addition of an agonist and inhibition of the agonist-induced activation was recorded. Human embryonic kidney 293 cells stably expressing the macrophage scavenger receptor class II (HEK-293-MSR-II) and transduced with 1% BacMam (J. P. Condreay, S. M. Witherspoon, W. C. Clay and T. A. Kost, Proc Natl Acad Sci 96 (1999), pp. 127-132) virus expressing the human TRPV4 gene were plated at 15000 cells/well in a volume of 50 μL in a 384 well poly-D lysine coated plate. Cells were incubated for 24 hours at 37 degrees and 5% CO2. Media was then aspirated using a Tecan Plate-washer and replaced with 20 μL of dye loading buffer: HBSS, 500 uM Brilliant Black (MDS Analytical Technologies), 2 uM Fluo-4. Dye loaded plates were then incubated in the dark at room temperature for 1-1.5 hours. 10 μL of test compound diluted in HBSS (HBSS with 1.5 mM Calcium Chloride, 1.5 mM Magnesium Chloride and 10 mM HEPES. pH 7.4), +0.01% Chaps was added to the plate, incubated for 10 min at room temperature in the dark and then 10 μL of agonist was added at a final concentration equal to the agonist EC80. Calcium release was measured using the FLIPRtetra (MDS Analytical Technologies) or FLIPR384 (MDS Analytical Technologies).
IC50 between 0.1-10 nM (+++), >10-50 nM (++), >50-500 nM (+).

T1 sequence (Q9HBA0 whole entry): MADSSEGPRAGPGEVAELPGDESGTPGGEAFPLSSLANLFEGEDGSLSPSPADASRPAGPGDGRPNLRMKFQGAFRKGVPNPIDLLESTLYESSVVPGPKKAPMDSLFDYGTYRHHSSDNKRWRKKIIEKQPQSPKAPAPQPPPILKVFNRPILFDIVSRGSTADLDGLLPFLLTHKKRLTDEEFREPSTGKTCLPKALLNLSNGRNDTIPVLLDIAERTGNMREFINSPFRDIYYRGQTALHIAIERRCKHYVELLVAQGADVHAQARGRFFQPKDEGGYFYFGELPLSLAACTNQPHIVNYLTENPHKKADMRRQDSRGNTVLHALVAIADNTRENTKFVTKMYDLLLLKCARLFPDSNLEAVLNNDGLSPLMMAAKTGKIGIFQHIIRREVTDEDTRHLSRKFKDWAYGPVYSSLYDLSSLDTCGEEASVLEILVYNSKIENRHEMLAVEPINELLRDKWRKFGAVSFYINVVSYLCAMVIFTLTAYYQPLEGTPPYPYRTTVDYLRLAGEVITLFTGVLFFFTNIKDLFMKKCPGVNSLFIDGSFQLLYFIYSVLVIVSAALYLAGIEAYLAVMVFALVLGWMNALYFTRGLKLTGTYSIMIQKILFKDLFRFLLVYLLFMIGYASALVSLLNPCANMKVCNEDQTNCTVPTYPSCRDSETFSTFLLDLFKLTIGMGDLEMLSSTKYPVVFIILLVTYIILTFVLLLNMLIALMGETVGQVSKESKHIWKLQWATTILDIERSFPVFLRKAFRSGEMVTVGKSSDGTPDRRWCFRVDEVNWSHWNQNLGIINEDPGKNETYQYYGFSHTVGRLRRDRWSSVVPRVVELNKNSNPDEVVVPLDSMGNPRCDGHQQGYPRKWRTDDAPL

As for `CC(C)(C)c1noc(C(C)(C)CN2C[C@@]3(CCC[C@H](Cn4cnc5ccc(C#N)cc54)C3)OC2=O)n1` [Example 79, 1-[((5S,7S)-3-{2-[3-(1,1-dimethylethyl)-1,2,4-oxadiazol-5-yl]-2-methylpropyl}-2-oxo-1-oxa-3-azaspiro[4.5]dec-7-yl)methyl]-1H-benzimidazole-6-carbonitrile], the IC50 is 0.1 to 10 nM.

With `COc1cc(Cl)ncc1N1C[C@@]2(CCC[C@](C)(Cn3cnc4ccc(C#N)cc43)C2)OC1=O` [Example 122, 1-(((5S,7S)-3-(6-chloro-4-methoxypyridin-3-yl)-7-methyl-2-oxo-1-oxa-3-azaspiro[4.5]decan-7-yl)methyl)-1H-benzo[d]imidazole-6-carbonitrile], the IC50 lay in the range of 0.1 to 10 nM.

With `Cc1cc(Cl)cnc1N1C[C@@]2(CCC[C@](C)(Cn3cnc4ccc(C#N)cc43)C2)OC1=O` [Example 121, 1-(((5S,7S)-3-(5-chloro-3-methylpyridin-2-yl)-7-methyl-2-oxo-1-oxa-3-azaspiro[4.5]decan-7-yl)methyl)-1H-benzo[d]imidazole-6-carbonitrile], the IC50 fell in the range of 0.1 to 10 nM.

With `CN(C)c1ncc(N2C[C@@]3(CCC[C@](C)(Cn4cnc5ccc(C#N)cc54)C3)OC2=O)cn1` [Example 145, 1-(((5S,7S)-3-(2-(dimethylamino)pyrimidin-5-yl)-7-methyl-2-oxo-1-oxa-3-azaspiro[4.5]decan-7-yl)methyl)-1H-benzo[d]imidazole-6-carbonitrile], the IC50 lay in the range of 10 to 50 nM.

On to `N#Cc1cc(F)cc(-n2cc(CN3CC4(CCC[C@H](Cn5cnc6ccc(C#N)cc65)C4)OC3=O)nn2)c1` (stereo in doubt) [Example 103, 1-[((5S,7S)-3-{[1-(3-cyano-5-fluorophenyl)-1H-1,2,3-triazol-4-yl]methyl}-2-oxo-1-oxa-3-azaspiro[4.5]dec-7-yl)methyl]-1H-benzimidazole-6-carbonitrile], for which the IC50 fell in the range of 0.1 to 10 nM.

As to `CN(C)c1ccc(N2C[C@@]3(CCC[C@](C)(Cn4cnc5ccc(C#N)cc54)C3)OC2=O)cn1` [Example 19, 1-(((5S,7S)-3-(6-(Dimethylamino)pyridin-3-yl)-7-methyl-2-oxo-1-oxa-3-azaspiro[4.5]decan-7-yl)methyl)-1H-benzo[d]imidazole-6-carbonitrile], the IC50 was 0.1 to 10 nM.

In the case of `CC1(CN2C[C@@]3(CCC[C@H](Cn4cnc5ccc(C#N)cc54)C3)OC2=O)CCN(c2ncccn2)C1` (stereo partly drawn) [Example 7, 1-[((5S,7S)-3-{[3-Methyl-1-(2-pyrimidinyl)-3-pyrrolidinyl]methyl}-2-oxo-1-oxa-3-azaspiro[4.5]dec-7-yl)methyl]-1H-benzimidazole-6-carbonitrile], the IC50 lay in the range of 50 to 500 nM.

As to `CC(C)(CO)c1cc(N2C[C@@]3(CCC[C@](C)(Cn4cnc5ccc(C#N)cc54)C3)OC2=O)on1` [Example 21, 1-(((5S,7S)-3-(3-(1-Hydroxy-2-methylpropan-2-yl)isoxazol-5-yl)-7-methyl-2-oxo-1-oxa-3-azaspiro[4.5]decan-7-yl)methyl)-1H-benzo[d]imidazole-6-carbonitrile], the IC50 is 50 to 500 nM.

Take `COc1cc(C)c(N2C[C@@]3(CCC[C@H](Cn4cnc5ccc(C#N)cc54)C3)OC2=O)cn1` [Example 111, 1-({(5S,7S)-3-[4-methyl-6-(methyloxy)-3-pyridinyl]-2-oxo-1-oxa-3-azaspiro[4.5]dec-7-yl}methyl)-1H-benzimidazole-6-carbonitrile]: the half-inhibitory concentration (IC50) is 10 to 50 nM.

For `CC(C)(O)c1ccc(N2C[C@@]3(CCC[C@](C)(Cn4cnc5ccc(C#N)cc54)C3)OC2=O)nc1` [Example 167, 1-(((5S,7S)-3-(5-(2-hydroxypropan-2-yl)pyridin-2-yl)-7-methyl-2-oxo-1-oxa-3-azaspiro[4.5]decan-7-yl)methyl)-1H-benzo[d]imidazole-6-carbonitrile], the IC50 lay in the range of 0.1 to 10 nM.

With `CC(C)(O)c1cnc(N2C[C@@]3(CCC[C@](C)(Cn4cnc5ccc(C#N)cc54)C3)OC2=O)cn1` [Example 147, 1-(((5S,7S)-3-(5-(2-hydroxypropan-2-yl)pyrazin-2-yl)-7-methyl-2-oxo-1-oxa-3-azaspiro[4.5]decan-7-yl)methyl)-1H-benzo[d]imidazole-6-carbonitrile], the half-maximal inhibitory concentration (IC50) fell in the range of 0.1 to 10 nM.
